The results in this text go back to patent publication US20230099031A1, “BIFUNCTIONAL AGENTS FOR PROTEIN RECRUITMENT AND/OR DEGRADATION” (Orionis Biosciences, Inc., priority 2019, published 2023).

Structures can show the parent of a compound that is named as a salt.

One assay concerns the target T1, CRBN (Homo sapiens, UniProt Q96SW2).
T1 construct: expressed in transfected cells; host or cells: HEK293T
Briefly: Competition Assay: MAPPIT-like, competition with trimethoprim-lenalidomide hybrid ligand for binding to CRBN in HEK293T cells. In kind it is cell-based. Particulars: HEK293T cells, 300 nM trimethoprim-lenalidomide hybrid ligand, luciferase 24 hours after compound treatment; read-out: Competition IC50. An excerpt:
A bait protein (protein A) is expressed as a fusion protein in which it is genetically fused to an engineered intracellular receptor domain of the leptin receptor, which is itself fused to the extracellular domain of the erythropoietin (Epo) receptor. Binding of Epo ligand to the EpoR component results in activation of receptor-associated intracellular JAK2. However, activated JAK2 cannot activate the leptin receptor to trigger STAT3 binding and its phosphorylation because its tyrosine residues, normally phosphorylated by activated JAK2, have been mutated. Reconstitution of a JAK2 phosphorylatable STAT3 docking site is instead created through interaction of a protein B with protein A, whereby protein B is fused to a cytoplasmic domain of the gp130 receptor (which now harbors appropriate tyrosine resides recognized by the activated JAK2 kinase). Thus, physical interaction of protein A with protein B reconstitutes and Epo triggers JAK2-STAT3 signaling pathway activation. Activation of STAT3 can be monitored by introduction of a STAT3-responsive reporter gene, including a luciferase-encoding gene or a gene encoding a fluorescent marker such as GFP or some other type of fluorescent protein (EGF etc.). In this manner, the MAPPIT assay provides a versatile assay to assess such recombinant protein-protein interactions, or compound- or hybrid ligand-induced protein-protein interactions, in intact cells.
Formation of the complex results in activation of a STAT-responsive luciferase reporter gene. That signal is set to 100% luciferase activity. In a separate sample set up, cells are prepared in the same manner but, in addition, co-incubated with a test compound whose interaction with CRBN is investigated. […] Increasing concentrations of test compound are assessed to determine CRBN binding efficiency as determined in this type of ligand competition experiment in living cells. Specificity of signal inhibition is assessed by a parallel experimental set up in which test compound effect is assessed for inhibition of signal generated by a control gp130 fusion protein (CTRL) that directly binds to the DHFR-fusion protein in the absence of hybrid ligand (i.e. a direct interaction of the proteins).
In more detail, HEK293T cells are cultured in Dulbecco's modified Eagle's medium supplemented with 10% fetal calf serum, incubated at 37° C., 8% CO2. […] Data points represent the average luciferase activity of triplicate samples derived from cells treated with leptin+test compound for the REM2 control (CTRL) or cells treated with leptin+hybrid ligand+test compound (CRBN) relative to leptin (CTRL) or leptin+hybrid ligand (CRBN) only treated samples (the signals obtained in absence of added test compound for both cases is set at 100% of luciferase activity on y-axis). Error bars represent standard deviations. Curves are fit using 4-parameter nonlinear regression in […] PRISM software
On to `C#CCOCCOCCOCCNc1nc(Nc2ccc3c(c2)CN(C2CCC(=O)NC2=O)C3=O)c2ccsc2n1` (stereo not shown) [Compound 5.01], for which the IC50 (as a rule, the point on the concentration scale where inhibition reaches its midpoint) was 0.435 µM. Still for that read-out and setting: then `CC(C)(C)OC(=O)NCCOCCOCCOCCn1cc(CNc2nc(Nc3ccc4c(c3)CN(C3CCC(=O)NC3=O)C4=O)c3ccsc3n2)nn1` (stereo not shown) [Compound 5.02], with 0.376 µM; and `C#CCOCCOCCOCCNC(=O)COc1ccc2nc(C(=O)Nc3ccc4c(c3)C(=O)N(C3CCC(=O)NC3=O)C4)ccc2c1` (stereo not shown) [Compound 5.03], with 0.873 µM; and `C#CCOCCOCCOCCOCC(=O)Nc1cc(Br)c2c(c1OC)C(=O)N(C1CCC(=O)NC1=O)C2` (stereo not shown) [Compound 5.04], with 0.189 µM. Still for that read-out and setting: then `C#CCOCCOCCOCCOCC(=O)Nc1ccc(-c2cccc3c2C(=O)N(C2CCC(=O)NC2=O)C3)cc1` (stereo not shown) [Compound 5.05], with 0.194 µM; and `C#CCOCCOCCOCCNC(=O)c1ccc(CNC(=O)CNc2ccc3c(c2)C(=O)N(C2CCC(=O)NC2=O)C3)cc1` (stereo not shown) [Compound 5.08], with 5.25 µM; and `CC/C(=C(\c1ccccc1)c1ccc(OCCN(C)CC(=O)NCCNC(=O)COc2cccc3c2CN(C2CCC(=O)NC2=O)C3=O)cc1)c1ccccc1` (stereo not shown) [Compound 5.56], with 5.8 µM.

As for `Cc1sc2c(c1C)C(c1ccc(Cl)cc1)=N[C@@H](CC(=O)NCCOCCOCCOCCOCCNC(=O)COc1cccc3c1CN(C1CCC(=O)NC1=O)C3=O)c1nnc(C)n1-2` (stereo partly shown) [Compound 5.57], the IC50 stood at 0.109 µM. The same measure, in the same setting: under `Cc1sc2c(c1C)C(c1ccc(Cl)cc1)=N[C@@H](CC(=O)NCCOCCOCCOCCNC(=O)COc1cccc3c1CN(C1CCC(=O)NC1=O)C3=O)c1nnc(C)n1-2` (stereo partly shown) [Compound 5.58] stands 0.0998 µM.

For the compound `Cc1sc2c(c1C)C(c1ccc(Cl)cc1)=N[C@@H](CC(=O)NCCOCCOCCNC(=O)COc1cccc3c1CN(C1CCC(=O)NC1=O)C3=O)c1nnc(C)n1-2` (stereo partly shown) [Compound 5.59], the IC50 is 0.068 µM. The same measure, in the same setting: then `Cc1sc2c(c1C)C(c1ccc(Cl)cc1)=N[C@@H](CC(=O)NCCNC(=O)COc1cccc3c1CN(C1CCC(=O)NC1=O)C3=O)c1nnc(C)n1-2` (stereo partly shown) [Compound 5.60], with 0.116 µM.

Staying with this assay, now noted: protocol and reagents of Example 1; read-out: IC50 Competition.
As to `O=C1N=c2ccc(NC(=O)NCc3ccccc3)cc2=N1` [1-benzyl-3-(2-oxobenzimidazol-5-yl)urea], the IC50 was found to be 23.8 µM. Same read-out and setting: under `O=C(O)CNc1cccc2c1CN(C1CCC(=O)NC1=O)C2=O` (stereo not shown) [2-[[2-(2,6-dioxo-3-piperidyl)-1-oxo-isoindolin-4-yl]amino]acetic acid] stands 13.8 µM. The same measure, in the same setting: under `O=C1CCC(N2C(=O)c3ccccc3C2OCc2ccccc2)C(=O)N1` (stereo not shown) [3-(1-benzyloxy-3-oxo-isoindolin-2-yl)piperidine-2,6-dione] stands 58.3 µM; under `O=C1CCC(N2Cc3ccc(Nc4ncnc5ccccc45)cc3C2=O)C(=O)N1` (stereo not shown) [C80382 acetic acid salt, acetic acid;3-[1-oxo-6-(quinazolin-4-ylamino)isoindolin-2-yl]piperidine-2,6-dione], 0.0334 µM. The same measure, in the same setting: then `COc1ccc(C2c3ccccc3C(=O)N2C2CCC(=O)NC2=O)cc1` (stereo not shown) [Compound C11892, 3-[1-(4-methoxyphenyl)-3-oxo-isoindolin-2-yl]piperidine-2,6-dione], with 8.16 µM; and `O=C1CCC(N2Cc3ccc(NCC(=O)N4CCCCC4)cc3C2=O)C(=O)N1` (stereo not shown) [Compound C12581], with 10 µM. For the compound `CC1CCN(C(=O)CNc2ccc3c(c2)C(=O)N(C2CCC(=O)NC2=O)C3)CC1` (stereo not shown) [Compound C12582, 3-[6-[[2-(4-methyl-1-piperidyl)-2-oxo-ethyl]amino]-1-oxo-isoindolin-2-yl]piperidine-2,6-dione], the IC50 is 37400 µM.

Regarding `CC1CCCN(C(=O)CNc2ccc3c(c2)C(=O)N(C2CCC(=O)NC2=O)C3)C1` (stereo not shown) [Compound C12583, 3-[6-[[2-(3-methyl-1-piperidyl)-2-oxo-ethyl]amino]-1-oxo-isoindolin-2-yl]piperidine-2,6-dione], the IC50 is 0.0492 µM.
